Literature values, collected in patent US7958848B2, “Method for artificial breeding of farmed sturgeon” (priority 2009, dated 2011).

System: goldfish
Details: 1-5 mg/kg body weight in combination with pituitary gland

In the case of `O=c1[nH]c2ccccc2n1CCCN1CCC(n2c(=O)[nH]c3cc(Cl)ccc32)CC1` [Domperidone], the “Induction of spawning and gonadal development” value is given as “induced spawning and gonadal development”.
